Tests used:
[1] = xn = mol fraction of the nth substance listed; details: 101.3 kPa, Liquid
[2] = excess molar enthalpy (molar enthalpy of mixing); xn = mol fraction of the nth substance listed; details: 101.3 kPa, Liquid, Calvet calorimetry

CCCC(=O)OCC [ethyl butanoate] + CC(C)(C)O
Details | excess molar enthalpy [kJ/mol] | excess molar volume [m3/mol]
[1], 303.15 K, x1 = 0.0445 | – | 9.2e-07
[1], 303.15 K, x1 = 0.0966 | – | 2.08e-06
[1], 303.15 K, x1 = 0.1518 | – | 3.11e-06
[1], 303.15 K, x1 = 0.1999 | – | 3.83e-06
[1], 303.15 K, x1 = 0.2466 | – | 4.41e-06
[1], 303.15 K, x1 = 0.3111 | – | 5.13e-06
[1], 303.15 K, x1 = 0.3504 | – | 5.6e-06
[1], 303.15 K, x1 = 0.4043 | – | 5.91e-06
[1], 303.15 K, x1 = 0.4468 | – | 6.09e-06
[1], 303.15 K, x1 = 0.4837 | – | 6.11e-06
[1], 303.15 K, x1 = 0.5015 | – | 6.11e-06
[1], 303.15 K, x1 = 0.5259 | – | 6.07e-06
[1], 303.15 K, x1 = 0.5538 | – | 5.99e-06
[1], 303.15 K, x1 = 0.6004 | – | 5.74e-06
[1], 303.15 K, x1 = 0.6399 | – | 5.5e-06
[1], 303.15 K, x1 = 0.663 | – | 5.23e-06
[1], 303.15 K, x1 = 0.7129 | – | 4.83e-06
[1], 303.15 K, x1 = 0.7538 | – | 4.33e-06
[1], 303.15 K, x1 = 0.7934 | – | 3.77e-06
[1], 303.15 K, x1 = 0.8465 | – | 2.99e-06
[1], 303.15 K, x1 = 0.9017 | – | 2e-06
[1], 303.15 K, x1 = 0.9614 | – | 8.2e-07
[1], 318.15 K, x1 = 0.0604 | – | 1.83e-06
[1], 318.15 K, x1 = 0.1099 | – | 2.85e-06
[1], 318.15 K, x1 = 0.1559 | – | 3.63e-06
[1], 318.15 K, x1 = 0.2141 | – | 4.45e-06
[1], 318.15 K, x1 = 0.265 | – | 5.17e-06
[1], 318.15 K, x1 = 0.2982 | – | 5.41e-06
[1], 318.15 K, x1 = 0.3386 | – | 5.74e-06
[1], 318.15 K, x1 = 0.39 | – | 6.14e-06
[1], 318.15 K, x1 = 0.4477 | – | 6.44e-06
[1], 318.15 K, x1 = 0.4595 | – | 6.5e-06
[1], 318.15 K, x1 = 0.4778 | – | 6.53e-06
[1], 318.15 K, x1 = 0.4982 | – | 6.55e-06
[1], 318.15 K, x1 = 0.4996 | – | 6.56e-06
[1], 318.15 K, x1 = 0.5163 | – | 6.56e-06
[1], 318.15 K, x1 = 0.5222 | – | 6.55e-06
[1], 318.15 K, x1 = 0.5936 | – | 6.38e-06
[1], 318.15 K, x1 = 0.6597 | – | 6.03e-06
[1], 318.15 K, x1 = 0.7011 | – | 5.73e-06
[1], 318.15 K, x1 = 0.745 | – | 5.15e-06
[1], 318.15 K, x1 = 0.7968 | – | 4.5e-06
[1], 318.15 K, x1 = 0.8396 | – | 3.81e-06
[1], 318.15 K, x1 = 0.8701 | – | 3.15e-06
[1], 318.15 K, x1 = 0.9283 | – | 2.01e-06
[2], 299.15 K, x1 = 0.0438 | 0.252 | –
[2], 299.15 K, x1 = 0.0937 | 0.516 | –
[2], 299.15 K, x1 = 0.1461 | 0.779 | –
[2], 299.15 K, x1 = 0.1991 | 1.04 | –
[2], 299.15 K, x1 = 0.2541 | 1.24 | –
[2], 299.15 K, x1 = 0.3061 | 1.41 | –
[2], 299.15 K, x1 = 0.3568 | 1.55 | –
[2], 299.15 K, x1 = 0.4053 | 1.64 | –
[2], 299.15 K, x1 = 0.4331 | 1.7 | –
[2], 299.15 K, x1 = 0.4818 | 1.74 | –
[2], 299.15 K, x1 = 0.5387 | 1.75 | –
[2], 299.15 K, x1 = 0.6024 | 1.71 | –
[2], 299.15 K, x1 = 0.6746 | 1.6 | –
[2], 299.15 K, x1 = 0.7522 | 1.39 | –
[2], 299.15 K, x1 = 0.833 | 1.05 | –
[2], 299.15 K, x1 = 0.9172 | 0.599 | –
[2], 318.15 K, x1 = 0.0394 | 0.293 | –
[2], 318.15 K, x1 = 0.0951 | 0.577 | –
[2], 318.15 K, x1 = 0.158 | 0.851 | –
[2], 318.15 K, x1 = 0.2201 | 1.09 | –
[2], 318.15 K, x1 = 0.2807 | 1.31 | –
[2], 318.15 K, x1 = 0.3377 | 1.46 | –
[2], 318.15 K, x1 = 0.385 | 1.57 | –
[2], 318.15 K, x1 = 0.4267 | 1.64 | –
[2], 318.15 K, x1 = 0.4576 | 1.69 | –
[2], 318.15 K, x1 = 0.4628 | 1.69 | –
[2], 318.15 K, x1 = 0.4938 | 1.72 | –
[2], 318.15 K, x1 = 0.5386 | 1.74 | –
[2], 318.15 K, x1 = 0.5934 | 1.71 | –
[2], 318.15 K, x1 = 0.6595 | 1.62 | –
[2], 318.15 K, x1 = 0.7407 | 1.41 | –
[2], 318.15 K, x1 = 0.8336 | 1.04 | –
[2], 318.15 K, x1 = 0.9223 | 0.57 | –

Source: the NIST ThermoML archive (doi:10.1021/je0202073)
